The results in this text go back to patent US11466007B2, “Substituted lactams showing serotonin 5-HT receptor activity” (Sumitomo Pharma Co., Ltd., priority 2018, dated 2022).

Data set [1] can be described thus: Test 11: hepatotoxic risk (dansyl glutathione (dGSH) trapping assay). The format is in vitro ADME. The conditions noted are these: human hepatic microsome, 37° C. for 60 minutes, N.D. means below detection limit. The procedure: Test 11: Evaluation of Hepatotoxic Risk (Dansyl Glutathione (dGSH) Trapping Assay)
The present compound was metabolized in hepatic microsome, and reactive metabolite which reacts with dansyl glutathione (dGSH) was detected and quantified from the resulting metabolite. Measurement was carried out with a screening robot (Tecan) for metabolic reaction, and with a fluorescence detection UPLC system (Waters) for metabolite-dGSH binding concentration.
The present compound was dissolved in DMSO to prepare 10 mmol/L test compound solution. 7.6 mL of potassium phosphate buffer (500 mmol/L, pH 7.4), 1.9 mL of human hepatic microsome (Xenotech, 20 mg protein/mL), and 1.27 mL of pure water were mixed to prepare a microsome solution. To 3.78 mL of the microsome solution was added 0.67 mL of pure water to prepare a microsome (dGSH(−)) solution. To 6.48 mL of the microsome solution was added 1.14 mL of the dGSH solution (20 mmol/L) to prepare a microsome (dGSH(+)) solution. […]
Metabolite-dGSH binding concentration was measured by the following method, using a fluorescence detection UPLC system (Waters). […]
Fluorescence intensity was corrected with the composition of organic solvent at the time of elution because fluorescence intensity changes depending on the composition of organic solvent.

The nature of data set [2]: Test 4: metabolic stability test in human hepatic microsome. The data set is classed as in vitro ADME. The conditions noted are these: 0.1 mg/mL microsome, 0.1 μmol/L compound, NADPH, 37° C., 30 minutes. In outline:
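Test compound at 0.1 μmol/L incubated 30 min at 37° C with human liver microsomes (0.1 mg/mL) and NADPH (3.2 mmol/L) in 25 mmol/L phosphate buffer, pH 7.4. Residual compound quantified by LC-MS; clearance (mL/min/mg protein) = −LN(residual ratio)/30/0.1.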

In the case of `O=C1c2ncccc2CCN1CCN1CCC(c2noc3ccccc23)CC1` [Example 22, 7-{2-[4-(1,2-Benzoisoxazol-3-yl)piperidin-1-yl]ethyl}-6,7-dihydro-1,7-naphthyridin-8(5H)-one], the Metabolite-dGSH binding concentration in data set [1] turned out to be 0.089 µM. Further, the “Metabolic stability in human hepatic microsome” value in data set [2] was found to be 0.039 mL/min/mg protein.
